Laboratory results taken from article PMC12091851, “Replacing a Cereblon Ligand by a DDB1 and CUL4 Associated Factor 11 (DCAF11) Recruiter Converts a Selective Histone Deacetylase 6 PROTAC into a Pan‐Degrader” (Chemmedchem, 2025).

Assays:
[1] = test system: HDAC; conditions: cited from earlier work
[2] = Aqueous stability assay in DPBS buffer (HPLC); format: physicochemical; conditions: DPBS pH 7.4, 10% DMSO, room temperature, 72 hours
Experimental: and A6. Compounds were diluted in DPBS buffer (pH = 7.4; final DMSO concentration: 10%) and the remaining compound content was analyzed by HPLC. The peak area at 0 h was used for normalization.
Mean ± standard deviation of n = 2 replicates.
Figure S4. Analysis of time dependent degradation by 1j of HDAC1 (A) and HDAC6 (B) by Simple Western™ immunoassay analysis of MM.1S cell lysates. MM.1S cells were treated with 1j (10 µM) or vehicle (DMSO) for the indicated time period. Quantification of protein levels presented as mean ± standard deviation of n = 3 biological replicates. Si gnificance compared to vehicle: * = p≤0.05 , […]
2.5. Aqueous Stability Assay
For stability testing in aqueous solution, a 10-fold concentrated DMSO solution of the respective compounds was diluted in DPBS to generate a 10 µM concentration (final DMSO content of 10%).
Samples of the aqueous solutions were taken after 0, 24, 48, and 72 h at room temperature and the amounts of the parental compound and potential fragments were monitored by HPLC gradient A (see 3.1 General Information). The peak area of the 0 h sample was used for normalization. All compounds were tested in duplicates and GraphPad Prim was used for evaluation and data visualization.
The cell lysis was performed as descripted in 3.2. Simple Western Immunoassay. […]
Afterwards, proteins were transferred with the Trans -Blot Turbo Transfer System (Catalog# 1704150, Bio-Rad) to Immobilon-FL PVDF membranes (Catalog# IPFL00005, Mill ipore Merck, Burlington, MA, USA) at 1.0 A for 30 min and treated with 5% milk-powder solution for 1 h at room temperature under slight agitation. […] The ChemiDoc XRS+ System (Catalog# 1708265 , Bio-Rad) was used for detection and Image Lab Software 6.1 (Bio-Rad) for quantification. […]
In vitro inhibitory activities against HDAC1, 2 , and 6 were measured using a previously published protocol.[3] In vitro inhibitory activities against HDAC4 were measured using a previously published protocol with slight modifications. […]

[3] = test system: MM.1S cells; test: Cell cycle analysis by PI staining and flow cytometry; format: cell-based, human; conditions: 10 μM, 48 h
Experimental: GraphPad Prism (GraphPad Software). […]
Biotech), resuspended in 1 mL EtOH/D PBS (7/3 v/v), and fixed for 30 min at 4 °C. The samples were rehydrated with DPBS and treated with 5 µg /mL RNAse ( Catalog# EN0531 , ThermoFisher Scientific Inc.) for 15 min at room temperature. The staining was performed with 3 µM propidium iodide (in DPBS) for 15 min at room temperature and analyzed by flow cytometry ( Guava easyCyteTM, Luminex, […]
Lakes, NJ, USA), using the Watson Pragmatic algorithm.[6] GraphPad Prism (GraphPad Software) was used for normalization, statistical analysis, and bar graph creation. Significance testing was performed with a one-way analysis of variance (ANOVA). Dunnett’s post-hoc test was employed to obtain […]
Final DMSO concentration was 0.1%.
Staining was performed with
Fluorescence was measured by flow cytometry (Guava® easyCyteTM, Luminex, Austin, Texas). GraphPad Prism (GraphPad Software) was used for normalization, statistical analysis, and bar graph creation. Significance testing was performed with a one-way analysis of variance (ANOVA).
Subsequently, cells were harvested and […]
After 30 minutes of incubation at […]
Dunnett’s post-hoc test was employed

[4] = test system: MDA-MB-231 cells; test: Clonogenic growth assay; format: cell-based, human; conditions: 10 μM for 48 h, nine days of growth
Experimental: Figure 9 Clonogenic growth assay of DCAF11‐recruiting PROTACs. MDA‐MB‐231 cells were treated with 10 μM of the respective compound or vehicle (DMSO) for 48 hours. (A) Representative images of crystal violet stained colonies after nine days of growth. (B) Quantification of counted colonies, presented as mean ± standard deviation of three biological replicates, each performed in triplicates. Significance of quantification compared to vehicle: ns=p≥0.05; **=p≤0.01 and ***=p≤0.001. […]
Subsequently, cells were harvested and
plated in 6-well plates at a density of 750 cells per well in triplicates. The cell culture medium was
changed after five days. Nine days after plating, the colonies were carefully washed with 500 µL DPBS
and stained with 500 µL crystal violet solution (0.5% in methanol). After 30 minutes of incubation at
room temperature, the wells were gently rinsed with deionized water. After counting the formed
colonies, GraphPad Prism (GraphPad Software) was used for bar graph creation. Significance testing
was performed with a one-way analysis of variance (ANOVA). Dunnett’s post-hoc test was employed
to obtain significance levels of each mean compared to a reference mean value.

decomposition / reduction in content in DPBS buffer [2]	SMILES	degraded HDAC isoforms [1]	effect on cell cycle phases [3]	reduction of colonies (clonogenic growth) [4]
–	O=C(CCCCCCC(=O)N/N=C/c1ccc(OCCOCCOCCn2cc(CNc3cccc4c3C(=O)N(C3CCC(=O)NC3=O)C4=O)nn2)cc1)NO (centres unmarked) [I]	only HDAC6 was degraded	–	–
–	Cc1ncsc1-c1ccc([C@@H](C)NC(=O)[C@H]2C[C@H](O)CN2C(=O)[C@H](NC(=O)CCOCCOCCN(CCc2c[nH]c3ccccc23)Cc2ccc(/C=C/C(=O)NO)cc2)C(C)(C)C)cc1 [V]	degraded HDAC3 and 8	–	–
remained intact	O=C(CCCCCCC(=O)Nc1ccccc1)NO [Vorinostat, vorinostat, reference compound]	–	stronger effects on the different phases of the cell cycle	less pronounced and not significant
